# Source: ChEMBL document CHEMBL1157344, “Botcinins E and F and Botcinolide from Botrytis cinerea and structural revision of botcinolides” (2006)
# Tested on: Pyricularia grisea
# Test: Antifungal activity against Magnaporthe grisea
# Type: functional
row,SMILES,MIC [µM]
1,CCCC[C@H](O)/C=C/C(=O)O[C@@H]1[C@@H](C)[C@@H]2OC(=O)[C@H](C)[C@H](O)[C@@]2(C)O[C@H]1C [3-O-DEACETYLBOTCININ A],100
2,CCCC[C@H](O)/C=C/C(=O)O[C@@H]1[C@@H](C)[C@H](O)[C@@](C)([C@@H](O)[C@@H](C)C(=O)O)O[C@H]1C [BOTCINIC ACID],100
3,CCCCCC[C@H](O)/C=C/C(=O)O[C@@H]1[C@@H](C)[C@@H]2OC(=O)[C@H](C)[C@H](OC(C)=O)[C@@]2(C)O[C@H]1C [BOTCININ B],12.5
4,CCCC[C@H](O)/C=C/C(=O)O[C@@H]1[C@@H](C)[C@@H]2OC(=O)C(C)=C[C@@]2(C)O[C@H]1C [BOTCININ D],12.5
5,CCCC[C@H](O)/C=C/C(=O)O[C@@H]1[C@@H](C)[C@@H]2OC(=O)[C@@H](C)[C@H](O)[C@@]2(C)O[C@H]1C [BOTCININ F],100
